Experimental data: US8003666B2, “Hydrate for medical purposes” (priority 2006, dated 2011)
In brackets after ≈: the same amount, converted by molar mass.

Tested on: Mycobacterium tuberculosis (bacteria resistant to quinolone)
Assay: microbe, parasite or virus in culture
Type: cell-based

| Compound | MIC (strain 1 (QR-3)) [µg/mL] | MIC (strain 2 (QR-6)) [µg/mL] | MIC (strain 3 (QR-1)) [µg/mL] | MIC (strain 4 (QR-9)) [µg/mL] | MIC (strain MDR 1) [µg/mL] | MIC (strain MDR 3) [µg/mL] | MIC (strain MDR 4) [µg/mL] | MIC (strain MDR 5) [µg/mL] | MIC (strain MDR 7) [µg/mL] | MIC (strain MDR 9) [µg/mL] | MIC (strain MDR 12) [µg/mL] | MIC (strain s 1) [µg/mL] |
| --- | --- | --- | --- | --- | --- | --- | --- | --- | --- | --- | --- | --- |
| COc1c(N2CC3(CC3)[C@](C)(N)C2)c(F)cc2c(=O)c(C(=O)O)cn([C@@H]3C[C@@H]3F)c12 [Hemihydrate, 7-[(7S)-7-Amino-7-methyl-5-azaspiro[2.4]heptan-5-yl]-6-fluoro-1-[(1R,2S)-2-fluorocyclopropyl]-8-methoxy-1,4-dihydro-4-oxoquinoline-3-carboxylic acid hemihydrate] | 0.125 | 0.5 | 0.25 | 0.25 | 0.125 | 0.125 | 0.25 | 0.5 | 0.125 | 0.125 | 0.125 | 1 |
| CO[C@H]1/C=C/O[C@@]2(C)Oc3c(C)c(O)c4c(O)c(c(/C=N/N5CCN(C)CC5)c(O)c4c3C2=O)NC(=O)/C(C)=C\C=C\[C@H](C)[C@H](O)[C@@H](C)[C@@H](O)[C@@H](C)[C@H](OC(C)=O)[C@@H]1C [RFP, rifampicin] | > 128 | > 128 | 128 (≈ 156 µM) | > 128 | 16 (≈ 19.4 µM) | 128 (≈ 156 µM) | 64 (≈ 77.8 µM) | 32 (≈ 38.9 µM) | > 128 | 128 (≈ 156 µM) | 128 (≈ 156 µM) | 16 (≈ 19.4 µM) |
